Experimental data: patent publication US20250295628A1 (priority 2022, published 2025)

Columns and labels:
[1] = tested on: chronic cadmium poisoning model rabbits; test: Cadmium-removing effect by intravenous drip in chronic cadmium poisoning rabbits (Example 18); type: in vivo, New Zealand rabbits; details: for Urine β2-microglobulin values: after four weeks of administration
From the text: 205 male New Zealand rabbits, 1.8˜2.2 kg, were randomly divided into a blank control group with 25 rabbits and chronic cadmium poisoning groups with a total of 180 rabbits. The model rabbits were ear margin intravenous injected with a mixed solution containing 1.5 μmol/kg CdCl2 and 30 μmol/kg thioethanol (ME) according to weight, once/d for continuous 5 days, and observed for 35 days. After 35 days, qualified rabbits were selected according to weight, including 18 rabbits in the blank group and 162 rabbits in the poisoning group. The 162 rabbits in the poisoning group were randomly divided into a model group, D3 high-dose group, D3 low-dose group, compound 3B high-dose group, compound 3B low-dose group, composition 3 high-dose group, composition 3 low-dose group, composition 3-powder injection high-dose group, composition 3-powder injection low-dose group, with 18 rabbits in each group. Rabbits in the mode group and the blank group were administered by intravenous drip with the same volume of normal saline, with a rate of 30 drops/min for a dripping time of about 2 h, 1 time/d, 5 d/week. After administration on the last day of week 1, week 2 and week 4, the urine of 0 h˜6 h and the urine of 7 h˜24 h of rabbits were respectively collected; the content of cadmium in blood, urine and kidney, and the cadmium-removing rate from blood and kidney were determined, and the results are shown in Table 6.

[2] = Solid stability: main component content over time under storage conditions (Example 15); type: physicochemical
[3] = Compatibility stability and pH of 2 mg/ml solutions in normal saline and 5% glucose injection at room temperature (Example 15); type: physicochemical; details: for main component content in solution: 2 mg/ml, room temperature
[4] = Acute toxicity in SD rats (Example 16); type: in vivo; details: both sexes, rat, in vivo, 3 g/kg, single intravenous injection, read-out: rat MTD, injected
From the text: (§1) SPF-grade SD rats, 180˜220 g, 70 males and 70 females, were divided into 7 groups, 10 males and 10 females in each group. Rats in group 1 were intravenous injected with 3 g/kg of D3; rats in group 2 were intravenous injected with 3 g/kg of composition 3; rats in group 3 were intravenous injected with 3 g/kg of composition 3-powder injection; rats in group 4 were orally administrated with 5 g/kg of composition 3-enteric-coated granule; rats in group 5 were orally administrated with 5 g/kg of composition 3-enteric-coated capsule; rats in group 6 were orally administrated with 5 g/kg of composition 3-enteric-coated sustained-release capsule; group 7 was a blank group. After administration, the poisoning situation was observed every day, and no obvious poisoning reaction was found.

SD rats = test: Acute toxicity in SD rats (Example 16); type: in vivo; details: intravenous 3 g/kg, observed 14 days
From the text: as §1

beagles = test: Acute toxicity in beagles (Example 16); type: in vivo; details: intravenous 2 g/kg, observed 14 days
From the text: (§2) Ordinary grade beagles 8˜10 kg, 70 males and 70 females, were divided into 7 groups, 10 males and 10 females in each group. Beagles in group 1 were intravenous injected with 2 g/kg of D3; beagles in group 2 were intravenous injected with 2 g/kg of composition 3; beagles in group 3 were intravenous injected with 2 g/kg of composition 3-powder injection; beagles in group 4 were orally administrated with 5 g/kg of composition 3-enteric-coated granule; beagles in group 5 were orally administrated with 5 g/kg of composition 3-enteric-coated capsule; beagles in group 6 were orally administrated with 5 g/kg of composition 3-enteric-coated sustained-release capsule; group 7 was a blank group. After administration, the poisoning situation was observed every day, and no obvious poisoning reaction was found.

[5] = Acute toxicity in beagles (Example 16); type: in vivo; details: both sexes, beagle, dog, in vivo, 2 g/kg, single intravenous injection, read-out: dog MTD, injected
From the text: as §2

[6] = Solid stability of compositions 1-11 and compounds 1A-11A: main component content over time under different conditions (Example 37, Table 32); type: physicochemical
Method: Compositions 1-11 and compounds 1A-11A were placed at environments of −25° C., 5±3° C., 25±2° C./60±5% RH, 40±2° C./75±5% RH, 60° C. for 0 d, 5 d and 10 d (d refers to day), respectively, and changes of the main component content (the main component content of 0 day was converted to 100%) were measured, the results are shown in Table 32.

[7] = 1 w of treatment, high-dose group (D3 433, composition 3 and composition 3-preparation 108 mg/kg)
[8] = 1 w of treatment, high-dose group (D3 433, compound 3B 83.5, composition 3 and composition 3-preparation 108 mg/kg)
[9] = 1 w of treatment, low-dose group (D3 108, composition 3 and composition 3-preparation 27 mg/kg)
[10] = 1 w of treatment, low-dose group (D3 108, compound 3B 21, composition 3 and composition 3-preparation 27 mg/kg)
[11] = 2 w of treatment, high-dose group (D3 433, composition 3 and composition 3-preparation 108 mg/kg)
[12] = 2 w of treatment, high-dose group (D3 433, compound 3B 83.5, composition 3 and composition 3-preparation 108 mg/kg)
[13] = 2 w of treatment, low-dose group (D3 108, composition 3 and composition 3-preparation 27 mg/kg)
[14] = 2 w of treatment, low-dose group (D3 108, compound 3B 21, composition 3 and composition 3-preparation 27 mg/kg)
[15] = 4 w of treatment, high-dose group (D3 433, composition 3 and composition 3-preparation 108 mg/kg)
[16] = 4 w of treatment, high-dose group (D3 433, compound 3B 83.5, composition 3 and composition 3-preparation 108 mg/kg)
[17] = 4 w of treatment, low-dose group (D3 108, composition 3 and composition 3-preparation 27 mg/kg)
[18] = 4 w of treatment, low-dose group (D3 108, compound 3B 21, composition 3 and composition 3-preparation 27 mg/kg)

CSCCC(C(=O)[O-])N(CC(O)C(O)C(O)C(O)CO)C(=S)[S][Na].[Na+] [Composition D3, N-(2,3,4,5,6-pentahydroxyhexyl)-(N-disubstitutedsodium formate)-L-sodium methionate]
Removing rate (cadmium in blood) [1, 7]: 13.9%
Removing rate (cadmium in kidney) [1, 7]: 47.8%
Cadmium in blood [1, 8]: 89.45 ± 13.31 µg/L
Cadmium in kidney [1, 8]: 6.53 ± 2.16 µg/L
Removing rate (cadmium in blood) [1, 9]: 6.8%
Removing rate (cadmium in kidney) [1, 9]: 39.7%
Cadmium in blood [1, 10]: 96.60 ± 6.31 µg/L
Cadmium in kidney [1, 10]: 7.42 ± 3.83 µg/L
Removing rate (cadmium in blood) [1, 11]: 16.9%
Removing rate (cadmium in kidney) [1, 11]: 77.0%
Cadmium in blood [1, 12]: 61.39 ± 12.47 µg/L
Cadmium in kidney [1, 12]: 3.36 ± 1.08 µg/L
Removing rate (cadmium in blood) [1, 13]: 0.07%
Removing rate (cadmium in kidney) [1, 13]: 54.0%
Cadmium in blood [1, 14]: 68.54 ± 13.39 µg/L
Cadmium in kidney [1, 14]: 5.92 ± 2.01 µg/L
Removing rate (cadmium in blood) [1, 15]: 35.8%
Removing rate (cadmium in kidney) [1, 15]: 91.7%
Cadmium in blood [1, 16]: 17.67 ± 6.84 µg/L
Cadmium in kidney [1, 16]: 1.85 ± 0.52 µg/L
Removing rate (cadmium in blood) [1, 17]: 11.1%
Removing rate (cadmium in kidney) [1, 17]: 75.8%
Cadmium in blood [1, 18]: 24.34 ± 8.38 µg/L
Cadmium in kidney [1, 18]: 3.93 ± 1.16 µg/L
Urine β2-microglobulin values ([1]; high-dose group (D3 433, compound 3B 83.5, composition 3 and composition 3-preparation 108 mg/kg)): 161.64 ± 45.18 ng/L
Urine β2-microglobulin values ([1]; low-dose group (D3 108, compound 3B 21, composition 3 and composition 3-preparation 27 mg/kg)): 197.15 ± 31.66 ng/L
main component content ([2]; 5 ± 3° C., 0 d (converted to 100%)): 100%
main component content ([2]; 5 ± 3° C., 5 d): 97.3%
main component content ([2]; 5 ± 3° C., 10 d): 96.5%
main component content ([2]; 5 ± 3° C., 30 d): 90.8%
decrease of the main component content / stability on 180 d ([2]; 5±3° C., 180 d): about 18.8%
main component content ([2]; 5±3° C., 180 d): 81.2%
main component content ([2]; 25 ± 2° C./60 ± 5% RH, 0 d (converted to 100%)): 100%
main component content ([2]; 25 ± 2° C./60 ± 5% RH, 5 d): 95.1%
main component content ([2]; 25 ± 2° C./60 ± 5% RH, 10 d): 90.3%
main component content ([2]; 25 ± 2° C./60 ± 5% RH, 30 d): 84.6%
main component content ([2]; 25 ± 2° C./60 ± 5% RH, 180 d): 64.2%
main component content ([2]; 40 ± 2° C./75 ± 5% RH, 0 d (converted to 100%)): 100%
main component content ([2]; 40 ± 2° C./75 ± 5% RH, 5 d): 91.2%
main component content ([2]; 40 ± 2° C./75 ± 5% RH, 10 d): 84.3%
main component content ([2]; 40 ± 2° C./75 ± 5% RH, 30 d): 60.3%
main component content ([2]; −25° C., 0 d (converted to 100%)): 100%
main component content ([2]; −25° C., 5 d): 101.2%
main component content ([2]; −25° C., 10 d): 99.8%
main component content ([2]; −25° C., 30 d): 100.7%
main component content ([2]; −25° C., 180 d): 99.9%
pH ([3]; 2 mg/ml solution in 5% glucose injection): 9.7
pH ([3]; 2 mg/ml solution in normal saline): 9.7
main component content in solution ([3]; 5% glucose injection, 0 h (converted to 100%)): 100%
main component content in solution ([3]; 5% glucose injection, 1 h): 90%
main component content in solution ([3]; 5% glucose injection, 2 h): 81%
main component content in solution ([3]; 5% glucose injection, 4 h): 69%
main component content in solution ([3]; 5% glucose injection, 8 h): 54%
main component content in solution ([3]; normal saline, 0 h (converted to 100%)): 100%
main component content in solution ([3]; normal saline, 1 h): 95%
main component content in solution ([3]; normal saline, 2 h): 83%
main component content in solution ([3]; normal saline, 4 h): 73%
main component content in solution ([3]; normal saline, 8 h): 71%
MTD at 14 d [4]: > 3000 mg/kg
acute toxicity observation (SD rats): no obvious toxicity
acute toxicity observation (beagles): no obvious toxicity
MTD at 14 d [5]: > 2000 mg/kg
main component content ([6]; 5 ± 3° C., 0 d (0 day content converted to 100%)): 100%
main component content ([6]; 5 ± 3° C., 5 d): 97.3%
main component content ([6]; 5 ± 3° C., 10 d): 96.5%
main component content ([6]; 25 ± 2° C./60 ± 5% RH, 0 d (0 day content converted to 100%)): 100%
main component content ([6]; 25 ± 2° C./60 ± 5% RH, 5 d): 95.1%
main component content ([6]; 25 ± 2° C./60 ± 5% RH, 10 d): 90.3%
main component content ([6]; 40 ± 2° C./75 ± 5% RH, 0 d (0 day content converted to 100%)): 100%
main component content ([6]; 40 ± 2° C./75 ± 5% RH, 5 d): 91.2%
main component content ([6]; 40 ± 2° C./75 ± 5% RH, 10 d): 84.2%
main component content ([6]; 60° C., 0 d (0 day content converted to 100%)): 100%
main component content ([6]; 60° C., 5 d): 65.6%
main component content ([6]; 60° C., 10 d): 64.2%
main component content ([6]; −25° C., 0 d (0 day content converted to 100%)): 100%
main component content ([6]; −25° C., 5 d): 101.2%
main component content ([6]; −25° C., 10 d): 99.8%
